{
  "source": "patent US20240271138A1",
  "about": "“METHODS AND COMPOSITIONS FOR MODULATING STING SIGNALING AND INNATE IMMUNE RESPONSES” (The Broad Institute, Inc., priority 2021, published 2024)",
  "key": {"type 1 IFN expression": {"test_system": "type 1 IFN expression", "settings": "cited from earlier work"}, "T-cells": {"test_system": "T-cells", "settings": "cited from earlier work"}, "human STING": {"biological_target": "human STING (Homo sapiens, UniProt Q86WV6)", "sequence (Q86WV6 whole entry H232R)": "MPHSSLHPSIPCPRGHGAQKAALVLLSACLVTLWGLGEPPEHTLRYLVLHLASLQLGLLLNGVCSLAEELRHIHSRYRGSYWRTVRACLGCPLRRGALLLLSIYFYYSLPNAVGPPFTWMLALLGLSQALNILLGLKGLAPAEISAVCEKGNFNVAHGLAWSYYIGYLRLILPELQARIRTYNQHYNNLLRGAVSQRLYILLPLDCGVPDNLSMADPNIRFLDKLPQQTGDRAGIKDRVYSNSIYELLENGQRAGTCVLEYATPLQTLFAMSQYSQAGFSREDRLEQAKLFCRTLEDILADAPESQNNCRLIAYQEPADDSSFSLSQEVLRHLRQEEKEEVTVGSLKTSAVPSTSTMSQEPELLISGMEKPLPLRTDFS", "settings": "cited from earlier work"}, "[1]": {"test_system": "STING LBD fusion proteins (PH-S139, 2XFYVE-S139)", "assay": "mNG fluorescence and immunoblots of organelle-targeted STING LBD fusion proteins", "assay_type": "cell-based, human", "settings": "nigericin stimulation", "excerpt": "Upper, concentrated STING is able to mediate TBK1 for trans-phosphorylation. Lower, diluted STING is unable to mediate TBK1's transphosphorylation."}, "STING-HA": {"test_system": "STING-HA", "assay": "STING-HA degradation in 293T stably expressing STING-HA, HA intracellular staining", "assay_type": "cell-based, human", "settings": "293T STING-HA; cGAMP 6 hours; pre-treatment with U18666A; FIGS. 11G-11H", "excerpt": "FIGS. 11A-11H show interaction of ESCRT components with STING. FIGS. 11A-11D show immunofluorescence of CD63, HGS, and STING (FIG. 11A); p62, HGS, and STING (FIG. 11B); LC3B, HGS, and STING (FIG. 11C); p62, CD63, and STING (FIG. 11D) in 293T stably expressing STING-HA and non-stimulated, relative to FIGS. 4A-4D. […] Dashed box represents the cropped region enlarged in the right panel for the +cGAMP condition. Scale bar is 10 μm. One representative field of n≥3 independent fields in n=3 independent experiments. […] One representative experiment of n=3 independent experiments with n=2 technical replicates per experiment. […] Each dot represents an individual replicate **** p<0.0001.\nData was analyzed with FlowJo (BD)."}, "STING": {"test_system": "STING", "assay": "Immunoblots of U937 and STING-HA 293T cells treated with VPS34-IN1 and cGAMP", "assay_type": "cell-based, human", "settings": "1 μM VPS34-IN1", "excerpt": "(§1) FIGS. 22A-22F show endosome localization and J domain activity are essential for DNAJC13's function on STING."}, "DNAJC13": {"test_system": "DNAJC13", "assay": "Immunofluorescence of DNAJC13 in 293T cells", "assay_type": "cell-based, human", "settings": "1 μm VPS34-IN1, FIG. 22B", "excerpt": "as §1"}, "[2]": {"settings": "sgCTRL cells, cGAMP stimulation, FIGS. 22D-22E"}},
  "data": [
    {"compound": "Cc1ccc2c(=O)c3cccc(CC(=O)O)c3oc2c1C", "note": "[DMXAA, 6-dimethylxanthenone-4-acetic acid]", "values": [
      {"measurement": "type 1 IFN expression", "setting": "type 1 IFN expression", "result": "induces type 1 IFN expression"},
      {"measurement": "apoptosis in T-cells", "setting": "T-cells", "result": "elicits stress pathways that induce apoptosis in T-cells"},
      {"measurement": "binding to human STING versus murine STING", "setting": "human STING", "result": "substantially weaker binding to human STING in comparison to murine STING"}
    ]},
    {"compound": "CO[C@@H]1C[C@@H](C[C@H]2CC[C@H](C)[C@H]([C@@H](C)C(=O)O)O2)O[C@]2(O[C@](C)([C@H]3CC[C@@](C)([C@@H]4O[C@@H]([C@H]5O[C@@](O)(CO)[C@H](C)C[C@@H]5C)C[C@@H]4C)O3)C[C@H]2C)[C@@H]1C", "note": "[Nigericin]", "values": [
      {"measurement": "PH-S139 localization", "setting": "[1]; FIG. 17E", "result": "PH-S139 localization change was observed to dispersed vesicles"},
      {"measurement": "STING activation (phosphorylation) of fusion proteins", "setting": "[1]; FIG. 17F", "result": "STING activation was observed in PH-S139 and 2XFYVE-S139 but not with mitochondria localized TomS33-S139 or WT STING"}
    ]},
    {"compound": "CCN(CC)CCO[C@H]1CC[C@@]2(C)C(=CC[C@@H]3[C@@H]2CC[C@]2(C)C(=O)CC[C@@H]32)C1", "note": "[U18666A]", "values": [
      {"measurement": "STING degradation (STING-HA MFI)", "setting": "STING-HA", "result": "marked reduction in STING degradation"}
    ]},
    {"compound": "CC(C)(O)CNc1ncc(-c2ccnc(Nc3ccnc(Cl)c3)n2)c(CC2CC2)n1", "note": "[VPS34-IN1]", "values": [
      {"measurement": "STING induced autophagy", "setting": "STING; STING-HA 293T, digitonin and cGAMP, FIG. 22E", "result": "greatly enhanced"},
      {"measurement": "STING degradation", "setting": "STING; [2]", "result": "enhancement of STING degradation"},
      {"measurement": "STING phosphorylation", "setting": "STING; [2]", "result": "strong boost of STING phosphorylation"},
      {"measurement": "DNAJC13 endosomal localization", "setting": "DNAJC13", "result": "clear diffusion of DNAJC13 from the endosome"}
    ]},
    {"compound": "cyclic GMP-AMP [cGAMP]", "values": [
      {"measurement": "T-cell proliferation and T-cell death", "setting": "T-cells; exogenous cGAMP", "result": "impairs T-cell proliferation and can cause T-cell death"}
    ]}
  ]
}
